Measured values as given in patent US7405280B2, “Chromogenic substances and use thereof for the determination of carboxypeptidase activities” (Diagnostica Stago, priority 2001, dated 2008).

Legend:
[1] = biological target: T1, plasma TAFI (TAFIa) (Homo sapiens, UniProt Q96IY4); test: Decolorization of single amino acid substrate AAFR by activated plasma TAFI; assay type: biochemical; conditions: compared with pancreatic CPB
T1 construct: from tissue; host or cells: normal plasma pool, diluted 1/20
T1 sequence (Q96IY4 115-423): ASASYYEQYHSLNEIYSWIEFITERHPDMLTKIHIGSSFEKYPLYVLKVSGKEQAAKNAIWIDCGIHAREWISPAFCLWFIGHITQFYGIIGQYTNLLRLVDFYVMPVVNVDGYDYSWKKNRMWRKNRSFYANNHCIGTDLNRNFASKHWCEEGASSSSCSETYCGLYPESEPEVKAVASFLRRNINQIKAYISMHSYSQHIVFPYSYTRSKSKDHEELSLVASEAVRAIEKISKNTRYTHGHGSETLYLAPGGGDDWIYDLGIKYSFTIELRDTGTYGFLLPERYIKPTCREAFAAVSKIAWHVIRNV
Procedure: (§1) This substrate was constituted by a single amino acid carrying an anizylazoformyl chromophoric radical (CH3OC6H4—N═N—CO— portion). The amino acid selected was arginine, a basic amino acid normally hydrolyzed by carboxypeptidases B (1).
(§2) This substrate (0.25 mM) was brought into the presence of either a sample of plasma TAFI or a solution of porcine pancreatic carboxypeptidase B (Sigma, Reference: C9584), […].
(§3) The reduction in coloration of each of the two samples was followed using a spectrophotometer. Each sample was treated using the protocol below: • a) Starting sample: • plasma TAFI (present in a normal plasma pool—diluted to 1/20); or • porcine pancreatic carboxypeptidase B, […] (in Hepes buffer); • b) activation with thrombin-thrombomodulin-CaCl2 complex (see Example N^o 2) for the plasma TAFI sample; • c) addition of 5 mM AAFR; • d) read OD at 382 nm.

[2] = biological target: T2, porcine pancreatic carboxypeptidase B (Sus scrofa, UniProt P09955); test: Decolorization of single amino acid substrate AAFR by porcine pancreatic carboxypeptidase B; assay type: biochemical; conditions: porcine CPB 5.2 mol/l in Hepes buffer; 5 mM AAFR; at 382 nm
T2 construct: purchased Sigma C9584; host or cells: porcine pancreas
T2 sequence (P09955 111-416): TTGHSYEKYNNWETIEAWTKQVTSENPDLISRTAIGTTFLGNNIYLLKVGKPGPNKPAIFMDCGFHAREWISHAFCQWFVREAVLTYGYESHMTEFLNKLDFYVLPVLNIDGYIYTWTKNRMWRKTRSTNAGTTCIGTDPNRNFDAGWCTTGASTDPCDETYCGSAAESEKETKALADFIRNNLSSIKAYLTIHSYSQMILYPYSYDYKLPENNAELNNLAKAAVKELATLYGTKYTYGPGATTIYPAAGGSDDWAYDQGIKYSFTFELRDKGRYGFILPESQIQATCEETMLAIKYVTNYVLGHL
Procedure: as §1, §2, §3

[3] = biological target: T3, purified TAFI (TAFIa) (Homo sapiens, UniProt Q96IY4); test: Hydrolysis of MxAFR or MxPAFFK by activated purified TAFI solution; assay type: biochemical; conditions: purified TAFI 18 μg/ml
T3 sequence (Q96IY4 115-423): T1 sequence (Q96IY4 115-423)
Procedure: 2/ The method of the invention was then applied to a solution of purified TAFI either with a substrate with formula (I) (MxPAFFK) or with MxAFR to verify that TAFIa nevertheless hydrolyzes a compound with formula (I). Coagulation activation was triggered by the thrombin-thrombomodulin-CaCl2 complex (see protocol in Example N^o 2).
The reduction in coloration of each of the two samples was followed using a spectrophotometer. • a) Starting samples: purified TAFI solution, 18 μg/ml (diluted in Hepes buffer); • b) activating coagulation; • c) adding 27 mM MxAFR or MXPAFFK (control), concentration of MxAFFK; • d) adding CPA to the sample containing the MxPAFFK; • e) read OD at 382 nm.

[4] = system: TAFI; conditions: per 1 mg of PCI; as indicated by the manufacturer (Calbiochem); cited from earlier work

| Hydrolysis by activated TAFI (conclusion) [1] | Final OD [2] | Starting OD [2] | Hydrolysis by activated TAFI (conclusion) [3] | Compound | Amount of TAFI (50 U/mg) inhibited at 50% by 1 mg of PCI [4] |
| --- | --- | --- | --- | --- | --- |
| does not hydrolyze | 0.445 | 1.054 | does not hydrolyze | COc1ccc(N=NC(=O)N[C@@H](CCCNC(=N)N)C(=O)O)cc1 [AAFR, 4-methoxyphenylazoformylarginine] |  |
|  |  |  | active | COc1ccc(/N=N/C(=O)NC(Cc2ccccc2)C(=O)NC(CCCCN)C(=O)O)cc1 (stereo not drawn) [MxPAFFK, 4-metboxyphenylazoformylphenylalanyllysine] |  |
|  |  |  |  | PCI: Carboxypeptidase Inhibitor from Potato Tubers, specific TAFI inhibitor (Calbiochem ref 217359) (QQHADPICNKPCKTHDDCSGAWFCQACWNSARTCGPYVG; UniProt P01075 1-39, looked up) | about 8 mg |
